This note sets out measurements from patent EP4617273A1, “FUSED TRICYCLIC PARP1 INHIBITOR, PREPARATION METHOD THEREFOR, AND USE THEREOF” (Haihe Biopharma Co., Ltd., priority 2022, dated 2024).

A value given as a limit tells only on which side of the number the result lay.

T2 sequence (Q9UGN5 whole entry): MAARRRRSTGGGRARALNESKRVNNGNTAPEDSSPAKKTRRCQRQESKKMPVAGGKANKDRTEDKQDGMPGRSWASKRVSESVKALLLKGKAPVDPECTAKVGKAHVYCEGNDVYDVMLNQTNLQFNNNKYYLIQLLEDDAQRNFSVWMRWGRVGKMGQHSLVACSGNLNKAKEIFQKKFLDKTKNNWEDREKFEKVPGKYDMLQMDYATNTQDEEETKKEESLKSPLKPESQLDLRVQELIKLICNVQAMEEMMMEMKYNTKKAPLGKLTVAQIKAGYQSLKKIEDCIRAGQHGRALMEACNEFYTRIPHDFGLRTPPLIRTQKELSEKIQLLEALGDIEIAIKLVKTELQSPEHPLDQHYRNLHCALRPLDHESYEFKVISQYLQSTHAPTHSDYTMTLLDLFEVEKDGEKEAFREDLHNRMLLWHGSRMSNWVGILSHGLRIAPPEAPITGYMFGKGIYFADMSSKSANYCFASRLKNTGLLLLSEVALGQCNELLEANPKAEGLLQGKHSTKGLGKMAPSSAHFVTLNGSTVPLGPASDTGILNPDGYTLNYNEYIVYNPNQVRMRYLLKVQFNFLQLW

Test system in one data set: not listed separately
The experiment in a line: Preliminary pharmacokinetic test in mice. It counts as in vivo. As to conditions: male, ICR, iv; mouse plasma, i.v. 1 mg/kg. The method, then: 1. Healthy ICR mice were administered the tested compounds intravenously (1 mg/kg) or by gavage (5 mg/kg). Nine male mice weighing 30-35 g for each route of administration were randomly divided into three groups of three mice each.
The mice were fasted for 12h before the test and allowed to drink water freely. The mice were fed 4h after the administration.
Intravenous and gavage administration: 0.25h, 0.5h, 1.0h, 2.0h, 3.0h, 4.0h, 6.0h, 8.0h and 24h after administration.
Blood was collected continuously, and 3 animals were collected at each time point. Plasma collection and processing: 30-40 µL of venous blood was collected from the mouse retroorbital venous plexus at the above set time points, placed in an EDTA-K2 test tube, centrifuged at 3500 rpm for 10 min, and plasma was separated and frozen in a -20 °C refrigerator.
The concentration of the compounds in mouse plasma was determined by LC/MS/MS. Pharmacokinetic parameters after administration were calculated using the […] of Phoenix 8.3 software (Pharsight, USA).
The molecule `CNC(=O)c1ccc(N2CCN(Cc3ccc4c(c3F)NC(=O)N3CCCN=C43)CC2)c(F)n1` [Compound 139] gave an area under the curve AUC(0-t) of 2820 ng·h/mL, a clearance of 5.9 mL/min/kg and a half-life of 3.1 h.

The data set is the same for the next values; noted with them: male, ICR, plasma, oral; mouse, p.o. 5 mg/kg versus i.v. 1 mg/kg.
In turn, `CNC(=O)c1ccc(N2CCN(Cc3ccc4c(c3F)NC(=O)N3CCCN=C43)CC2)c(F)n1` [Compound 139] returned a bioavailability of 98%.

Staying with this data set, now noted: male, ICR, po; mouse plasma, p.o. 5 mg/kg.
`CNC(=O)c1ccc(N2CCN(Cc3ccc4c(c3F)NC(=O)N3CCCN=C43)CC2)c(F)n1` [Compound 139] gave an AUC(0-t) of 13800 ng·h/mL and a half-life of 3.2 h.

For another data set, the system named is MDR1. As to the kind of experiment: MDR1-MDCK II cell model of bidirectional permeability. It counts as in vitro ADME. The settings on record: dog, apical-to-basolateral, 2 µM, 2.5 h. On the procedure: 2 µM of the test compound was added to the wells at the apical side or the basolateral side of the monolayer of cells and incubated for 2.5 h at 37.0°C in a 5.0% CO2 incubator. Cell monolayer integrity was determined by Lucifer yellowrejection assay. The buffer was removed from the apical side and basolateral side, and the concentration of the subject compounds was determined using LC-MS/MS. The concentration data were used to calculate the apparent permeabilitycoefficients of apical-to-basolateral (A-B) and basolateral-to-apical (B-A)side, and to calculate efflux ratio with the formula: Efflux Ratio = Papp (B-A) / Papp (A-B) Table 3. bidirectional permeability of MDR1-MDCK II cells for compounds of the present invention
Molecule `CNC(=O)c1ccc(N2CCN(Cc3ccc4c(c3F)NC(=O)N3CC5(CC5)N=C43)CC2)c(F)n1` [Compound 138] gave a Papp A→B at 2.5 h, 2 µM of 14.7 ×10⁻⁶ cm/s.
Same read-out and setting: next, `CNC(=O)c1ccc(N2CCN(Cc3ccc4c(c3F)NC(=O)N3CCCN=C43)CC2)c(F)n1` [Compound 139]: 16.7 ×10⁻⁶ cm/s; `CNC(=O)c1ccc(N2CCN(Cc3ccc4c(c3F)NC(=O)N3C4=NC[C@@H]3C)CC2)c(Cl)n1` [Compound 156]: 16.3 ×10⁻⁶ cm/s; `CNC(=O)c1ccc(N2CCN(Cc3ccc4c(c3F)NC(=O)N3CC5(CC5)N=C43)CC2)c(C)n1` [Compound 157]: 15.1 ×10⁻⁶ cm/s.

The same data set, now with this note: dog, basolateral-to-apical, 2 µM, 2.5 h.
For the molecule `CNC(=O)c1ccc(N2CCN(Cc3ccc4c(c3F)NC(=O)N3CC5(CC5)N=C43)CC2)c(F)n1` [Compound 138], the Papp B→A at 2.5 h, 2 µM turned out to be 17 ×10⁻⁶ cm/s.
As to `CNC(=O)c1ccc(N2CCN(Cc3ccc4c(c3F)NC(=O)N3CCCN=C43)CC2)c(F)n1` [Compound 139], the Papp B→A at 2.5 h, 2 µM came out at 21.8 ×10⁻⁶ cm/s.
For the molecule `CNC(=O)c1ccc(N2CCN(Cc3ccc4c(c3F)NC(=O)N3C4=NC[C@@H]3C)CC2)c(Cl)n1` [Compound 156], the basolateral-to-apical permeability (Papp B→A) at 2.5 h, 2 µM was 21.1 ×10⁻⁶ cm/s.
The molecule `CNC(=O)c1ccc(N2CCN(Cc3ccc4c(c3F)NC(=O)N3CC5(CC5)N=C43)CC2)c(C)n1` [Compound 157] had an apparent permeability from basolateral to apical (Papp B→A) at 2.5 h, 2 µM of 21.6 ×10⁻⁶ cm/s.

In a further data set the target is T1, Recombinant human PARP1 protein (Homo sapiens, UniProt P09874). The experiment in a line: biochemical.
T1 sequence (P09874 whole entry): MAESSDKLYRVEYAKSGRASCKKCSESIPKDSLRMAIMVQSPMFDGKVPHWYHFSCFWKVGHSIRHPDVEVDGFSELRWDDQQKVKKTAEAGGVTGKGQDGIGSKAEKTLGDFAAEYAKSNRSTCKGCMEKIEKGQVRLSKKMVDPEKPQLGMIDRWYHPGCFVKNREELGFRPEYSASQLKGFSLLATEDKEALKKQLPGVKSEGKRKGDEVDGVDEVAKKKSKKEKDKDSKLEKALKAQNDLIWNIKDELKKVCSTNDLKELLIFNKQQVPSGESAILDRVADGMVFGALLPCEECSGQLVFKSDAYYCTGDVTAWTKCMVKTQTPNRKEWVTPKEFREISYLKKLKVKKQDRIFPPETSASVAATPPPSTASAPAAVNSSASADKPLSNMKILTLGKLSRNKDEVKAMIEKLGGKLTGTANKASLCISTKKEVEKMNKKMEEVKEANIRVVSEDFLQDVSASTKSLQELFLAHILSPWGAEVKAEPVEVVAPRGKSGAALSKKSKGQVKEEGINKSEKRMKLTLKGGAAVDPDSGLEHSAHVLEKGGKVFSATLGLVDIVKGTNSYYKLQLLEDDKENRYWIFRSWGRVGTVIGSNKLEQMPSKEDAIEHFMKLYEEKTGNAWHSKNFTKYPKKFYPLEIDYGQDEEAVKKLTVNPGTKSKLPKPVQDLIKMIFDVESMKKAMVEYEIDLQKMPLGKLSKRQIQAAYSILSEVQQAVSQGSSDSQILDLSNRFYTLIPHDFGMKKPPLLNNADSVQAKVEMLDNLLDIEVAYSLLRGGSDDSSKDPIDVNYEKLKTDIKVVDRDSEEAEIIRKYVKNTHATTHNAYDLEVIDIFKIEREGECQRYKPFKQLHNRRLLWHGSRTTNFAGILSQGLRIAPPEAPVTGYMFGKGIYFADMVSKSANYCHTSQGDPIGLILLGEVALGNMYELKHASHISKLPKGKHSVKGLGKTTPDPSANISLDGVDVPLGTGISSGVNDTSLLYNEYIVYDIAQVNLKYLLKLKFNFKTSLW
Conditions: not given
Consider `CNC(=O)c1ccc(N2CCN(C(C)c3ccc4c(c3)[nH]c(=O)c3ccnn34)CC2)c(F)n1` (stereo not drawn) [Compound 12], for which the IC50 is 0.57 nM.
The same measure, in the same setting: next, `CNC(=O)c1ccc(N2CCN(Cc3ccc4c(c3)[nH]c(=O)c3nn(C)cc34)CC2)c(F)n1` [Compound 22]: 0.8 nM; `CNC(=O)c1ccc(OC2CCN(Cc3ccc4c(c3)[nH]c(=O)c3ccnn34)C2)cn1` (stereo not drawn) [Compound 75]: 16.5 nM.
Same read-out and setting: for `CNC(=O)c1ccc(N2CCN(Cc3ccc4c(c3)[nH]c(=O)c3nc(C)oc34)CC2)c(F)n1` [Compound 102] the value was 1 nM; for `CNC(=O)c1ccc(N2CCN(Cc3ccc4c(c3)[nH]c(=O)c3nc(C)sc34)CC2)c(F)n1` [Compound 103], 0.9 nM.
Turning to `CNC(=O)c1ccc(N2CCN(Cc3ccc4c([nH]c(=O)c5ccnn54)c3F)CC2)c(Cl)n1` [Compound 113], the IC50 was determined as 0.8 nM.
Still for that read-out and setting: for `CNC(=O)c1ccc(N2CCN(Cc3ccc4c(c3)NC(=O)N3CCN=C43)CC2)c(F)n1` [Compound 124] the value was 1.07 nM; for `CNC(=O)c1ccc(N2CCN(Cc3ccc4c(c3F)NC(=O)N3CC(C)N=C43)CC2)c(F)n1` (stereo not drawn) [Compound 131], 1.2 nM; for `CNC(=O)c1ccc(N2CCN(Cc3ccc4c(c3Cl)NC(=O)N3CCN=C43)CC2)c(F)n1` [Compound 134], 2.8 nM.
`CNC(=O)c1ccc(N2CCN(Cc3ccc4c(c3F)NC(=O)N3CC(C)(C)N=C43)CC2)c(F)n1` [Compound 136]: the half-inhibitory concentration (IC50) is 11.3 nM.
Consider `CNC(=O)c1ccc(N2CCN(Cc3ccc4c(c3F)NC(=O)N3CCCN=C43)CC2)c(F)n1` [Compound 139], for which the IC50 is 1 nM.
Still for that read-out and setting: next, `CNC(=O)c1ccc(N2CCN(Cc3ccc4c(c3F)NC(=O)N3C4=NC[C@@H]3C)CC2)c(Cl)n1` [Compound 156]: 1.9 nM; `CNC(=O)c1ccc(N2CCN(Cc3ccc4c(c3F)NC(=O)N3CC5(CC5)N=C43)CC2)c(C)n1` [Compound 157]: 0.5 nM.

The next data set addresses T2, recombinant human PARP2 protein (Homo sapiens, UniProt Q9UGN5).
T2 construct: purchased BPS 80502
As to the kind of experiment: PARP2 enzymatic inhibitory activity, histone substrate, chemiluminescent ELISA. It counts as biochemical. As to conditions: histone substrate, 500 µM NAD+ not added; read-out: PARP2 IC50. The method, then: The PARP2 inhibitory activity assay was performed as in Experimental Method 1, except that PARP1 solution in step 2 of "3. Ribosylation reaction" was replaced with recombinant human PARP2 solution, and 500 µM NAD+ was not added in step 5 of the ribosylation reaction. Table 1. IC50 for inhibition of PARP1/2 enzymes by compounds of the present invention
As for `CNC(=O)c1ccc(N2CCN(C(C)c3ccc4c(c3)[nH]c(=O)c3ccnn34)CC2)c(F)n1` (stereo not drawn) [Compound 12], the IC50 came out at 214 nM.
Turning to `CNC(=O)c1ccc(N2CCN(Cc3ccc4c(c3)[nH]c(=O)c3nn(C)cc34)CC2)c(F)n1` [Compound 22], the IC50 amounted to 358 nM.
Same read-out and setting: for `CNC(=O)c1ccc(OC2CCN(Cc3ccc4c(c3)[nH]c(=O)c3ccnn34)C2)cn1` (stereo not drawn) [Compound 75] the value was 1870 nM.
With `CNC(=O)c1ccc(N2CCN(Cc3ccc4c(c3)[nH]c(=O)c3nc(C)oc34)CC2)c(F)n1` [Compound 102], the IC50 worked out at 522 nM.
As for `CNC(=O)c1ccc(N2CCN(Cc3ccc4c(c3)[nH]c(=O)c3nc(C)sc34)CC2)c(F)n1` [Compound 103], the IC50 was 829 nM.
With `CNC(=O)c1ccc(N2CCN(Cc3ccc4c([nH]c(=O)c5ccnn54)c3F)CC2)c(Cl)n1` [Compound 113], the IC50 is 1300 nM.
Still for that read-out and setting: for `CNC(=O)c1ccc(N2CCN(Cc3ccc4c(c3)NC(=O)N3CCN=C43)CC2)c(F)n1` [Compound 124] the value was 561 nM; for `CNC(=O)c1ccc(N2CCN(Cc3ccc4c(c3F)NC(=O)N3CC(C)N=C43)CC2)c(F)n1` (stereo not drawn) [Compound 131], 1280 nM; for `CNC(=O)c1ccc(N2CCN(Cc3ccc4c(c3Cl)NC(=O)N3CCN=C43)CC2)c(F)n1` [Compound 134], 3680 nM.
Regarding `CNC(=O)c1ccc(N2CCN(Cc3ccc4c(c3F)NC(=O)N3CC(C)(C)N=C43)CC2)c(F)n1` [Compound 136], the half-maximal inhibitory concentration (IC50) amounted to 8870 nM.

For a further data set, the system named is MDA-MB-436 cells. The experiment in a line: MDA-MB-436 cell proliferation inhibition test (CellTiter-Glo, 7 days). As to conditions: Homo sapiens, MDA-MB-436, 168 h, 7 days incubation. It counts as cell-based. On the procedure:
Human breast cancer MDA-MB-436 (purchased from ATCC) cells were cultured in DMEM medium (supplemented with 10% fetal bovine serum with 1% dual antibody) at 37 °C, 5% CO2. The cells were taken from the logarithmic growth phase, digested and prepare cell suspension witha certain concentration, which was inoculated into 96-well plates. 100 µL of cell suspension was added to each well of the 96-well plates, incubated overnight, then different concentrations of compounds were added, and the cells were incubated in the cell culture incubator for 7 days. At the end of incubation, 50 µL of CellTiter-Glo reagent was added to each well, mixed with a microplate and shaked for 2 min, and left at rt for 60 min, then the fluorescence value was read with a Spark® multimode microplate reader. […] Table 2. proliferation inhibitory activity of compounds of the present invention on MDA-MB-436 cells
In turn, `CNC(=O)c1ccc(N2CCN(C(C)c3ccc4c(c3)[nH]c(=O)c3ccnn34)CC2)c(F)n1` (stereo not drawn) [Compound 12] displayed an IC50 of less than 1.52 nM.
With `CNC(=O)c1ccc(N2CCN(Cc3ccc4c(c3)[nH]c(=O)c3nn(C)cc34)CC2)c(F)n1` [Compound 22], the half-maximal inhibitory concentration (IC50) worked out at 4.6 nM.
On the same count and under the same terms, next, `CNC(=O)c1ccc(N2CCN(Cc3ccc4c(c3)[nH]c(=O)c3nc(C)oc34)CC2)c(F)n1` [Compound 102]: 3.7 nM.
On the same count and under the same terms, for `CNC(=O)c1ccc(N2CCN(Cc3ccc4c(c3)[nH]c(=O)c3nc(C)sc34)CC2)c(F)n1` [Compound 103] the value was 1.4 nM; for `CNC(=O)c1ccc(N2CCN(Cc3ccc4c([nH]c(=O)c5ccnn54)c3F)CC2)c(Cl)n1` [Compound 113], less than 1.52 nM; for `CNC(=O)c1ccc(N2CCN(Cc3ccc4c(c3F)NC(=O)N3CC(C)N=C43)CC2)c(F)n1` (stereo not drawn) [Compound 131], 15.3 nM.
In turn, `CNC(=O)c1ccc(N2CCN(Cc3ccc4c(c3F)NC(=O)N3CC5(CC5)N=C43)CC2)c(F)n1` [Compound 138] had a half-maximal inhibitory concentration (IC50) of 3 nM.
For the molecule `CNC(=O)c1ccc(N2CCN(Cc3ccc4c(c3F)NC(=O)N3CCCN=C43)CC2)c(F)n1` [Compound 139], half-maximal inhibition (IC50) required 10.4 nM.
The same measure, in the same setting: for `CNC(=O)c1ccc(N2CCN(Cc3ccc4c(c3F)NC(=O)N3C4=NC[C@@H]3C)CC2)c(Cl)n1` [Compound 156] the value was 25 nM; for `CNC(=O)c1ccc(N2CCN(Cc3ccc4c(c3F)NC(=O)N3CC5(CC5)N=C43)CC2)c(C)n1` [Compound 157], 3.6 nM.

For the next data set, the target named is T1, Recombinant human PARP1 protein. The experiment in a line: PARP1 enzymatic inhibitory activity, histone substrate, chemiluminescent ELISA. As to conditions: PARP2 IC50 over PARP1 IC50.
Method: The PARP1/2 inhibitory activity of the compounds of the present invention was tested in an assay using Histone as a substrate.
Aim of the assay: to test the PARP1/2 enzymatic activity inhibition IC50 values of the compounds of the present application according to established experimental methods.
1. Compound Configuration: Dilute the compounds with DMSO in 384-well plates to a 1000-fold final concentration and set aside.
1) Dilute Histone with PBS, add 25uL of Histone mixture to each well and incubate for 2 h. 2) Wash each well 5 times using PBST solution. Remove the solution with a clean paper towel.3) Add 75 uL of Blocking buffer to each well and incubate for 1 h at rt. 4) Wash each well 5 times using PBST solution. Remove the solution with a clean paper towel.
2) Use 1× Assay buffer to prepare 2.5× final concentration of PARP1 solution. 3) Add 10 uL of enzyme solution to the compound wells and Max control wells; add 10 uL of 1× Assay buffer. […] 6) Centrifuge at 1000 rpm for 60 seconds and incubate at rt for 2 h. 7) Each well was washed 5 times with PBST solution. Remove the solution with a clean paper towel.
1) Prepare Streptavidin-HRP solution, add 25 µL to each well, centrifuge at 1000 rpm for 60 sec, and incubate at rt for 30 min. 2) Wash each well 5 times using PBST solution. Remove the solution with a clean paper towel. 3) Add 50 µL of ELISA Chemiluminescent Substrate per well. 4) Centrifuge at 1000 rpm for 60 seconds and read with EnSight after 5 min.
The inhibition rate was calculated using the following formula: % inhibition = (max signal - compound signal) / (max signal - min signal) × 100, where 'min signal' is the mean value of negative control wells and 'max signal' is the mean value of positive control wells.
Fitting the quantitative effect curve: using the log value of the concentration as the X-axis and the percentage inhibition as the Y-axis; using the log(inhibitor) vs. response-variable slope method in software GraphPadPrism5 to fit the quantitative effect curve to calculate the IC50 value for the inhibition of the enzyme activity by the compounds of the present invention. The fitting formula is: Y=Bottom+ (Top-Bottom)/(1+10^((logIC50-X)*HillSlope)).
As to `CNC(=O)c1ccc(N2CCN(C(C)c3ccc4c(c3)[nH]c(=O)c3ccnn34)CC2)c(F)n1` (stereo not drawn) [Compound 12], the “PARP1/2 Fold selectivity” value is listed as 374.9.
On the same count and under the same terms, next, `CNC(=O)c1ccc(N2CCN(Cc3ccc4c(c3)[nH]c(=O)c3nn(C)cc34)CC2)c(F)n1` [Compound 22]: 447.6; `CNC(=O)c1ccc(OC2CCN(Cc3ccc4c(c3)[nH]c(=O)c3ccnn34)C2)cn1` (stereo not drawn) [Compound 75]: 113.5.
Regarding `CNC(=O)c1ccc(N2CCN(Cc3ccc4c(c3)[nH]c(=O)c3nc(C)oc34)CC2)c(F)n1` [Compound 102], the “PARP1/2 Fold selectivity” value came to 521.6.
Same read-out and setting: next, `CNC(=O)c1ccc(N2CCN(Cc3ccc4c(c3)[nH]c(=O)c3nc(C)sc34)CC2)c(F)n1` [Compound 103]: 922.1; `CNC(=O)c1ccc(N2CCN(Cc3ccc4c([nH]c(=O)c5ccnn54)c3F)CC2)c(Cl)n1` [Compound 113]: 1626.3; `CNC(=O)c1ccc(N2CCN(Cc3ccc4c(c3)NC(=O)N3CCN=C43)CC2)c(F)n1` [Compound 124]: 524.6.
Take `CNC(=O)c1ccc(N2CCN(Cc3ccc4c(c3F)NC(=O)N3CC(C)N=C43)CC2)c(F)n1` (stereo not drawn) [Compound 131]: the “PARP1/2 Fold selectivity” value is 1064.
The same measure, in the same setting: next, `CNC(=O)c1ccc(N2CCN(Cc3ccc4c(c3Cl)NC(=O)N3CCN=C43)CC2)c(F)n1` [Compound 134]: 1313.2; `CNC(=O)c1ccc(N2CCN(Cc3ccc4c(c3F)NC(=O)N3CC(C)(C)N=C43)CC2)c(F)n1` [Compound 136]: 785.
